Experimental data taken from US20010001095A1, “Method for treating plants” (University of Maryland Eatern Shore, priority 1996, published 2001).
Marks after values point to notes of the source that are not given here.

Key:
soybean = assay: Greenhouse experiment: methanol sprayed on soybean plants from cured (PPFMs absent) or untreated (PPFMs present) seeds, plant dry weight; assay type: in vivo; details: for Mean dry weight +/− SD: methanol 0.5 ml per plant, harvested 2 weeks after spraying; for % gain over controls (dry weight): vs zero-time control
Experimental: Application of PPFMs to plants was performed in accordance with the methods detailed in U.S. Pat. No. 5,512,069. Application of methanol to plants was performed in accordance with U.S. Patent No. 5,532,204.
Soybeans were treated with dry heat before planting to lower the population of PPFMs on them (see U.S. Pat. No. 5,512,069). Untreated seeds served as controls.
To test whether the presence of PPFM bacteria is required for foliar applications of methanol to be effective, greenhouse experiments were conducted. Seeds of soybean were cured of their PPFM bacteria with dry heat as previously described (Holland et al, 1992, Plant Physiol 98:942-948)). Cured and untreated seeds wee then plated in the greenhouse in a soil-less potting medium (Pro-Mix BX), Premier Horticulture Inc.). During germination, and while the seedlings established themselves, all plants were watered freely. After 4 weeks, both cured and untreated plants were divided into two groups (each group consisting of approximately 10 pots of 5 plants). One group of cured seedlings and one group of untreated seedlings were maintained as before under freely-watered conditions. […] After 2 weeks, half of the plants in each test group were harvested and dried to constant weight (a zero-time control). The remaining plants were sprayed with methanol (0.5 ml per plant) from an atomizer and were allowed to continue growing under their respective watering regimes for an additional 2 weeks. At the end of this period, all remaining plants were harvested and dried to constant weight.

[1] = tested on: soybean (Glycine max (L.) Merr. cv. 'Corsica'); assay: Field experiments: foliar applications on soybean, seed yield by weight; assay type: in vivo
Experimental: To test the effects of foliar applications of methanol on soybean (Glycine max (L.) Merr. cv. ‘Corsica’ (maturity group IV)), field experiments were conducted over three years. In the first year, methanol at 0, 62.5 and 125 liters×ha^−1 was combined with urea nitrogen at 0, 12.5 and 25 kg×ha^−1 and sprayed with distilled water in a total volume of 500 liters×ha^−1 on test plants at the R5 stage of development. Latron B-1956 (Rohm and Haas) surfactant at 0.1% was included in all treatments. Treatments were applied from a knapsack sprayer in a randomized complete block design with four replications. Test blocks measured 5m×1.52m (7.6m^2). Plants were harvested by hand, threshed, and seed yield determined by weight. All seed weights are reported at 13% moisture content. […] To test whether PPFMS applied to leaves can substitute for methanol, spray applications of the bacterial alone and in combination with methanol were included in field experiments in the third year. […] The bacteria used in these treatments were isolated from soybean seed coat on plates of AMS medium. From a single bacterial colony, a liquid culture in the same medium was established and used to inoculate 12 liter batches of the bacteria in a Microferm fermentor (New Brunswick Scientific). Cells were harvested by centrifugation and resuspended in distilled water for application to plants in the field.

C3 crop plants = details: foliar sprays of aqueous (10-50%) methanol, arid environments; cited from earlier work
[2] = non-stressed (freely watered), PPFMs present
[3] = stress (wilting) conditions, PPFMs present
[4] = second year, M1 = 62.5 liters × ha^−1 methanol, N1 = 12.5 kg × ha^−1 urea

Row | SMILES | effect of methanol application on plant dry weight (a measure of yield) (soybean; non-stressed (freely watered) conditions, regardless of whether PPFMs are present) | Mean dry weight +/− SD (soybean; non-stressed (freely watered), PPFMs absent (cured seeds)) [g] | % gain over controls (dry weight) (soybean; non-stressed (freely watered), PPFMs absent (cured)) [%] | Mean dry weight +/− SD (soybean; [2]) [g] | % gain over controls (dry weight) (soybean; [2]) [%] | growth (increase in plant dry weight) (soybean; stress (wilting) conditions, only when PPFMs are present) | Mean dry weight +/− SD (soybean; stress (wilting) conditions, PPFMs absent (cured seeds)) [g] | % gain over controls (dry weight) (soybean; stress (wilting) conditions, PPFMs absent (cured)) [%] | Mean dry weight +/− SD (soybean; [3]) [g] | % gain over controls (dry weight) (soybean; [3]) [%] | Yield (seed yield) ([1]; first year, M2N0: 125 liters × ha^−1 methanol, 0 urea, sprayed at R5) | Yield (seed yield) [1, 4] | growth and yield (C3 crop plants) | Yield (seed yield) ([1]; first year, M0N1: 0 methanol, 12.5 kg × ha^−1 urea, sprayed at R5) | Yield (seed yield) ([1]; first year, M0N2: 0 methanol, 25 kg × ha^−1 urea, sprayed at R5)
1 | CO [methanol] | does not affect plant dry weight | 5.03 ± 1.19 | 80 | 6.85 ± 1.69 | 78 | improves growth | 2.69 ± 0.65 | 6 | 4.64 ± 0.72 | 65 | 2.28 | 2.4* | increased growth and yield | – | –
2 | NC(N)=O [urea] | – | – | – | – | – | – | – | – | – | – | – | 2.4 | – | 2.18 | 2.15
